From US6610712B2, “Aryloxy piperidinyl derivatives for the treatment of depression” (Wyeth, priority 2000, dated 2003)
Structures can show the parent of a compound that is named as a salt.

Experiments:
[1] = target: Serotonin Transporter (Homo sapiens, UniProt P31645); test: Serotonin transporter binding, [3H]paroxetine; settings: radioligand [3H]paroxetine
[2] = target: T1, 5-HT1A (Homo sapiens, UniProt P08908); test: 5-HT1A receptor binding, [3H]DPAT; design: 5-HT1A [3H]DPAT, % at single concentration: dose or concentration left out as unconfirmed; settings: radioligand [3H]DPAT
T1 sequence (P08908 1-422): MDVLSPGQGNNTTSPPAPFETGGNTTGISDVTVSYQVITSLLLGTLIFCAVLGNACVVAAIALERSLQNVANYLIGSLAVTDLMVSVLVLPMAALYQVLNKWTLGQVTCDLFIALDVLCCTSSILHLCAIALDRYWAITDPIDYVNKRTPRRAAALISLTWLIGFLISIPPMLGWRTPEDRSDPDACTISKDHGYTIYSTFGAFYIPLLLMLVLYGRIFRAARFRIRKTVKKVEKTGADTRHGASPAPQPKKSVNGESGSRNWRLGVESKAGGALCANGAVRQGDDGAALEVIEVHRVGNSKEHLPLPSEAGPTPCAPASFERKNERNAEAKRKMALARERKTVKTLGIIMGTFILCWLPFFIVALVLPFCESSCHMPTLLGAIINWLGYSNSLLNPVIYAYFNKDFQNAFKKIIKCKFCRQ

Chain of Serotonin Transporter (P31645 whole entry): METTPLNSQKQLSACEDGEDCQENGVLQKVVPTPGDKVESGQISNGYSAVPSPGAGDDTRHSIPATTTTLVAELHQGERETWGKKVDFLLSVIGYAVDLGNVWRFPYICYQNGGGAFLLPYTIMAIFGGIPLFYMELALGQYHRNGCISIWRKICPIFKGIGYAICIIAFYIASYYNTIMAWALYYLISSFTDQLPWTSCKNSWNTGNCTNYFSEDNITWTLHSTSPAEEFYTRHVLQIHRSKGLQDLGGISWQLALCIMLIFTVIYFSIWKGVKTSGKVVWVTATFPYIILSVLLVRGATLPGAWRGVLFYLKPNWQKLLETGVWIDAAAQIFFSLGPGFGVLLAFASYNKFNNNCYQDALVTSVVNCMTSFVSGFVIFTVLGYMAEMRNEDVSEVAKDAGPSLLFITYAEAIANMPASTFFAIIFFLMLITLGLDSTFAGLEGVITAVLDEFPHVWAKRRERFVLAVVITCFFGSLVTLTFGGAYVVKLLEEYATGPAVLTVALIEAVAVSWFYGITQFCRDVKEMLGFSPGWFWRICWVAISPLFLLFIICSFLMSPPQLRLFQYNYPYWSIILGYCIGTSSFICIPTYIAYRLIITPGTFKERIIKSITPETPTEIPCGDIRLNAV

Row | Compound | melting point [°C] | 5-HT1A [3H]DPAT, % at single concentration [2] [% @ 0.1 M] | Ki [1] [nM] | Ki [2] [nM]
1 | 6-Fluoro-3-{1-[2-(2,3-dihydro-benzo[1,4]dioxan-5-yloxy)-ethyl]-1,2,3,6-tetrahydro-pyridin-4-yl}-1H-indole [Example 6] |  |  | 0.15 | 83.7
2 | C1=C(c2c[nH]c3ccccc23)CCN(CCOc2cccc3c2OCCO3)C1 [Example 4, 3-{1-[2-(2,3-Dihydro-benzo[1,4]dioxan-5-yloxy)-ethyl]-1,2,3,6-tetrahydro-pyridin-4-yl}-1H-indole] |  |  | 0.17 | 78.3
3 | COc1ccccc1OCCN1CCC(Cc2c[nH]c3ccc(F)cc23)CC1 [Example 1, 5-Fluoro-3-{1-[2-(2-methoxyphenoxy)ethyl]-piperidin-4-ylmethyl}-1H-indole] |  |  | 0.35 | 180
4 | Fc1ccc2[nH]cc(CC3CCN(CCOc4cccc5c4OCCO5)CC3)c2c1 [Example 2, 5-Fluoro-3-{1-[2-(2,3-dihydrobenzo[1,4]dioxin-5-yloxy)ethyl]-piperidin-4-ylmethyl}-1H-indole] |  |  | 0.011 | 168
5 | Fc1ccc2[nH]cc(C3=CCN(CCOc4cccc5c4OCCO5)CC3)c2c1 [Example 5, 5-Fluoro-3-{1-[2-(2,3-dihydro-benzo[1,4]dioxan-5-yloxy)-ethyl]-1,2,3,6-tetrahydro-pyridin-4-yl}-1H-indole] |  |  | 1.17 | 83.3
6 | C1=C(c2c[nH]c3ccccc23)CCN(CCOc2cccc3c2OCCO3)C1 (as salt: oxalate) [Example 4, 3-{1-[2-(2,3-Dihydro-benzo[1,4]dioxan-5-yloxy)-ethyl]-1,2,3,6-tetrahydro-pyridin-4-yl}-1H-indole] | 85 to 88 |  |  | 
7 | Fc1ccc2[nH]cc(C3=CCN(CCOc4cccc5c4OCCO5)CC3)c2c1 (as salt: oxalate) [Example 5, 5-Fluoro-3-{1-[2-(2,3-dihydro-benzo[1,4]dioxan-5-yloxy)-ethyl]-1,2,3,6-tetrahydro-pyridin-4-yl}-1H-indole] | 195 to 198 |  |  | 

Further lines, with some results ahead:

Row | melting point [°C] | 5-HT1A [3H]DPAT, % at single concentration [2] [% @ 0.1 M] | Compound | Ki [1] [nM] | Ki [2] [nM]
8 | 157 to 159 |  | Fc1ccc2[nH]cc(CC3CCN(CCOc4cccc5c4OCCO5)CC3)c2c1 (as salt: fumarate) (hydrate or solvate) [Example 2, 5-Fluoro-3-{1-[2-(2,3-dihydrobenzo[1,4]dioxin-5-yloxy)ethyl]-piperidin-4-ylmethyl}-1H-indole] |  | 
9 |  | 0 | Fc1ccc2[nH]cc(CC3CCN(CCOc4ccc5c(c4)CCC5)CC3)c2c1 [Example 3, 5-Fluoro-3-{1-[2-(indan-5-yloxy)-ethyl]-piperidin-4-ylmethyl}-1H-indole] | 2.24 | 
10 | 91 |  | COc1ccccc1OCCN1CCC(Cc2c[nH]c3ccc(F)cc23)CC1 (as salt: oxalate) (hydrate or solvate) [Example 1, 5-Fluoro-3-{1-[2-(2-methoxyphenoxy)ethyl]-piperidin-4-ylmethyl}-1H-indole] |  | 
11 | 150 to 152 |  | Fc1ccc2[nH]cc(CC3CCN(CCOc4ccc5c(c4)CCC5)CC3)c2c1 (as salt: hydrochloride) (hydrate or solvate) [Example 3, 5-Fluoro-3-{1-[2-(indan-5-yloxy)-ethyl]-piperidin-4-ylmethyl}-1H-indole] |  | 
